Experimental data taken from Sander's compilation of Henry's law constants (doi:10.1136/oem.36.3.231).

Experiment: Henry solubility constant Hcp at 310 K (mol/(m3 Pa))
Settings: reference: Sato and Nakajima (1979a)

| Compound | Henry solubility constant Hcp at 310 K |
| --- | --- |
| Cc1ccccc1C [1,2-dimethylbenzene] | 0.001 |
| Cc1cccc(C)c1 [1,3-dimethylbenzene] | 0.00064 |
| Cc1ccc(C)cc1 [1,4-dimethylbenzene] | 0.00061 |
| CCCCCC(C)=O [2-heptanone] | 0.037 |
| CCCCC(C)=O [2-hexanone] | 0.043 |
| CCCC(C)=O [2-pentanone] | 0.064 |
| C=CCc1ccccc1 [2-propenylbenzene] | 0.0014 |
| CCC(=O)CC [3-pentanone] | 0.07 |
| CC(=O)CC(C)C [4-methyl-2-pentanone] | 0.031 |
| CC(C)c1ccccc1 [(2-propyl)-benzene] | 0.00056 |
| c1ccccc1 [benzene] | 0.0011 |
| C=Cc1ccccc1 [ethenylbenzene] | 0.0018 |
| CCc1ccccc1 [ethylbenzene] | 0.00066 |
| Cc1ccccc1 [methylbenzene] | 0.00086 |
| CC(C)=O [propanone] | 0.15 |
| CCCc1ccccc1 [propylbenzene] | 0.0005 |
